Data taken from US11412737B2, “Mixtures of beflubutamid or optically enriched forms thereof with a second herbicide” (FMC Corporation, priority 2016, dated 2022).
Values joined by “and” are separate entries in the source; they are usually repeats but may differ in a detail not shown here. Equal entries are not always repeated.

Tests used:
Wild oat (AVEFA) = assay: pre-emergence test, weed control; format: in vivo, Avena fatua; conditions: pre-emergent, 21 DAT, rate g ai/ha by row: r4 94, r5 125, r6 250, r7 125, r8 250, r9 500, r10 94+125, r11 125+125, r12 94+250, r13 125+250, r14 94+500, r15 125+500
Protocol: (§1) Test compositions containing the test compounds were diluted with water to provide the appropriate test rate concentrations.
(§2) For pre-emergence testing, four disposable fiber flats (6 inch by 10 inch) for each rate of application of each herbicide solution were filled with top soil, to which seeds of each species were planted in furrows made by a template pressed on the top of the soil. The furrows were covered with soil after planting the seed and were watered well before application of the test compounds.
(§3) Fiber flats designated for treatment were placed in a spray chamber having a static platform and a movable sprayer and the height of the spray nozzle was 10.5 inches above the soil level. Once the sprayer was calibrated using water for spray volume of 30 gallons per acre, flats were sprayed with sprayer at a speed to receive a coverage equivalent of 30 gallons per acre. The application rates are those shown in the Tables below for the individual herbicidal solutions and the herbicide compositions of this invention. The pre-emergence flats were immediately placed in the greenhouse and watered lightly after treatment. Thereafter they were regularly watered and fertilized for the duration of the test.
(§4) The control of weeds was evaluated in each experimental test at 21 for wheat and 28 days after treatment (DAT) for all species. Data were analyzed using Minitab software at 95% confidence interval. The results, shown as an average of the replications, were compared with results observed in untreated control flats in the same tests. Percent control was determined by a method similar to the 0 to 100 rating system disclosed in “Research Methods in Weed Science,” 2nd ed., B. Truelove, Ed.; Southern Weed Science Society; Auburn University, Auburn, Ala., 1977. The rating system is as follows in Table 1.

Rice flatsedge (CYPIR) = assay: pre-emergence test, weed control; format: in vivo; conditions: pre-emergent, 28 DAT; rate g ai/ha by row: r5 94, r6 125, r7 250, r8 3.28, r9 6.56, r10 13.1, r11 94+3.28, r12 94+6.56, r13 94+13.1, r14 125+3.28, r15 125+6.56, r16 125+13.1
How it was run: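 Pre-emergence; seeds in furrows in topsoil flats, watered before spraying. Moving sprayer, 30 gal/acre, nozzle 10.5 in. 4 flats per rate; greenhouse. Rated 21 DAT (wheat), 28 DAT (all species); 0–100 % control vs. untreated, mean of reps.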

velvetleaf (IPOHE) = assay: pre-emergence test, weed control; format: in vivo; conditions: pre-emergent, 21 DAT, rate g ai/ha by row: r4 94, r5 125, r6 250, r7 125, r8 250, r9 500, r10 94+125, r11 125+125, r12 94+250, r13 125+250, r14 94+500, r15 125+500
Common chickweed (STEME) = assay: post-emergence test, weed control; format: in vivo, Stellaria media; conditions: post-emergent, 28 DAT
Protocol: as §1
(§5) For post-emergence testing, seeds of each species for each rate of application of each herbicide solution were planted in 7.5 cm×7.5 cm plastic pots filled with potting soil. The seeds were germinated and the resulting plants were allowed to grow in a greenhouse until they reached a growth stage, such as height, suitable for testing. […] Pots of post-emergent treated plants were returned to the greenhouse and not watered for 24 hours after treatment. Thereafter they were regularly watered and fertilized for the duration of the test.
(§6) The control of weeds was evaluated in each experimental test at 21 for wheat and 28 days after treatment (DAT) for all species. […] The rating system is as follows in Table 1.

Canola (CN) = assay: post-emergence test, crop injury; format: in vivo; conditions: post-emergent, 28 DAT (Table 12 test)
Protocol: as §1
For post-emergence testing, seeds of each species for each rate of application of each herbicide solution were planted in 7.5 cm×7.5 cm plastic pots filled with potting soil. The seeds were germinated and the resulting plants were allowed to grow in a greenhouse until they reached a growth stage, such as height, suitable for testing. Treatments were applied using compressed air in a track spray chamber at 30 gallons/acre (280 L/ha) using a TeeJet 8001E nozzle at 40 psi (2.76 bars). Pots of post-emergent treated plants were returned to the greenhouse and not watered for 24 hours after treatment. Thereafter they were regularly watered and fertilized for the duration of the test.
The control of weeds was evaluated in each experimental test at 21 for wheat and 28 days after treatment (DAT) for all species. Data were analyzed using Minitab software at 95% confidence interval. The results, shown as an average of the replications, were compared with results observed in untreated control flats in the same tests. Percent control was determined by a method similar to the 0 to 100 rating system disclosed in “Research Methods in Weed Science,” 2nd ed., B. Truelove, Ed.; Southern Weed Science Society; Auburn University, Auburn, Ala., 1977. […]

redroot pigweed (AMARE) = assay: post-emergence test, weed control; format: in vivo; conditions: post-emergent, 28 DAT, COC 1%, rate g ai/ha by row: r5 94, r6 125, r7 250, r8 1.25, r9 2.5, r10 5, r11 94+1.25, r13 125+1.25, r15 94+2.5, r17 125+2.5, r19 94+5, r21 125+5
Protocol: as §1, §5, §6

Palmer amaranth (AMAPA) = assay: post-emergence test, weed control; format: in vivo, Amaranthus palmeri; conditions: post-emergent, 28 DAT, COC 1%, rate g ai/ha by row: r5 94, r6 125, r7 250, r8 1.25, r9 2.5, r10 5, r11 94+1.25, r13 125+1.25, r15 94+2.5, r17 125+2.5, r19 94+5, r21 125+5
Protocol: as §1, §5, §6

Green foxtail (SETVI) = assay: pre-emergence test, weed control; format: in vivo, Setaria viridis; conditions: pre-emergent, 28 DAT
Protocol: as §1, §2, §3, §4

[1] = system: Chinese sprangletop (LEFCH); assay: post-emergence test, weed control; format: in vivo; conditions: post-emergent, 28 DAT, height ≤0.5 cm, rate g ai/ha by row: r7 94, r8 125, r9 188, r10 125, r11 250, r12 94+125, r13 125+125, r14 188+125, r15 94+250, r16 125+250, r17 188+250
[2] = system: Marestail (horsetail) (ERICA); assay: post-emergence test, weed control; format: in vivo; conditions: post-emergent, 28 DAT, height 1 cm (3-5 rosette); rate g ai/ha by row: r25 94, r26 125, r27 188, r28 125, r29 250, r30 94+125, r31 125+125, r32 188+125, r33 94+250, r34 125+250, r35 188+250

## CCC(Oc1ccc(F)c(C(F)(F)F)c1)C(=O)NCc1ccccc1 (racemic) [BFL, 2-[4-fluoro-3-(trifluoromethyl)phenoxy]-N-(phenylmethyl)butanamide]
Wild oat (AVEFA); 94 g ai/ha
  percentage of weed control, Wild Oat AVEFA: 10%
Wild oat (AVEFA); 125 g ai/ha
  percentage of weed control, Wild Oat AVEFA: 9%
Rice flatsedge (CYPIR)
  percentage of weed control, Rice flatsedge CYPIR: 71% and 88% and 100%
Velvetleaf (IPOHE); 94 g ai/ha
  percentage of weed control, Morningglory IPOHE: 10%
Velvetleaf (IPOHE); 250 g ai/ha
  percentage of weed control, Morningglory IPOHE: 8%
Common chickweed (STEME); COC 1%, rate g ai/ha by row: r5 94, r6 125, r7 250, r8 1.25, r9 2.5, r10 5, r11 94+1.25, r13 125+1.25, r15 94+2.5, r17 125+2.5, r19 94+5, r21 125+5
  percentage of weed control, Common chickweed STEME: 5%
Common chickweed (STEME); BFL at 187.5 g, PYX at 45 g, combination of both
  control of common chickweed: 16%
Canola (CN)
  crop injury on canola: significant crop injury
Redroot pigweed (AMARE); BFL at 94 g ai/ha
  percentage of weed control, Redroot pigweed AMARE: 61%
Redroot pigweed (AMARE); BFL at 125 g ai/ha
  percentage of weed control, Redroot pigweed AMARE: 60%
Redroot pigweed (AMARE); BFL at 250 g ai/ha
  percentage of weed control, Redroot pigweed AMARE: 86%
Palmer amaranth (AMAPA); BFL at 94 g ai/ha
  percentage of weed control, Palmer amaranth AMAPA: 46%
Palmer amaranth (AMAPA); BFL at 125 g ai/ha
  percentage of weed control, Palmer amaranth AMAPA: 48%
Palmer amaranth (AMAPA); BFL at 250 g ai/ha
  percentage of weed control, Palmer amaranth AMAPA: 53%

## CC1(C)CON(Cc2ccc(Cl)cc2Cl)C1=O [DCI, 2-(2,4-dichlorophenyl)methyl-4,4-dimethyl-3-isoxazolidinone]
Green foxtail (SETVI); (+)-BFL >95% e.e., rate g ai/ha by row: r6 62.5, r7 125, r8 62.5, r9 125, r10 222, r11 445, r12 22.5, r13 45, r14 62.5+62.5, r15 125+62.5, r16 62.5+125, r17 125+125, r18 62.5+222, r19 125+222, r20 62.5+445, r21 125+445, r22 62.5+22.5, r23 125+22.5, r24 62.5+45, r25 125+45, 62.5 g ai/ha
  percentage of weed control, SETVI: 91%
Green foxtail (SETVI); (+)-BFL >95% e.e., rate g ai/ha by row: r6 62.5, r7 125, r8 62.5, r9 125, r10 222, r11 445, r12 22.5, r13 45, r14 62.5+62.5, r15 125+62.5, r16 62.5+125, r17 125+125, r18 62.5+222, r19 125+222, r20 62.5+445, r21 125+445, r22 62.5+22.5, r23 125+22.5, r24 62.5+45, r25 125+45, 125 g ai/ha
  percentage of weed control, SETVI: 99%
Green foxtail (SETVI); (−)-BFL >95% e.e., rate g ai/ha by row: r6 62, r7 125, r8 125, r9 250, r10 445, r11 890, r12 45, r13 90, r14 62+125, r15 125+125, r16 62+250, r17 125+250, r18 62+445, r19 125+445, r20 62+890, r21 125+890, r22 62+45, r23 125+45, r24 62+90, r25 125+90, 125 g ai/ha
  percentage of weed control, SETVI: 98%
Green foxtail (SETVI); (−)-BFL >95% e.e., rate g ai/ha by row: r6 62, r7 125, r8 125, r9 250, r10 445, r11 890, r12 45, r13 90, r14 62+125, r15 125+125, r16 62+250, r17 125+250, r18 62+445, r19 125+445, r20 62+890, r21 125+890, r22 62+45, r23 125+45, r24 62+90, r25 125+90, 250 g ai/ha
  percentage of weed control, SETVI: 99%
[1]; 125 g ai/ha
  percentage of weed control, LEFCH: 89%
[1]; 250 g ai/ha
  percentage of weed control, LEFCH: 79%
[2]
  percentage of weed control, ERICA: 0%
